# Data taken from US10376515B2, “Analogs of adenosine monophosphate (AMP) as inhibitors of ubiquitin-like modifier-activating enzyme ATG7” (Northwestern University, priority 2016, dated 2019).
# “Also recorded” adds a separate entry of the source.
# Tests used:
# A549 cells = assay: In-gel fluorescent detection of probe-labeled proteomes in live A549 cells; format: cell-based; details: 10 μM, 2 hours; for cell permeability and labeling of proteins in live cells: rhodamine azide click, in-gel fluorescence
# Experimental: We investigated the labeling of proteins with the developed probes inside of live cells. To this end, A549 cells were treated with 10 μM of compounds 1, 2, 3, and 5 for 2 hours. Then, the lysate was treated with click reaction mixtures containing rhodamine azide.
# A549 cells were grown in RPMI medium (Life Technologies) supplemented with 10% fetal bovine serum in 6-well plates. Confluent A549 cells (9.6 cm^2 per condition in 6-well plates) were washed with Dulbecco's Phosphate-Buffered Saline (DPBS, 3 mL) and the growth medium was replaced with RPMI medium containing each probe. After 2 h incubation time at 37° C., cells were washed with DPBS (3 mL). 160 μL of lysis buffer containing Tris HCl (25 mM, pH 7.6), NaCl (150 mM), 1% NP40, 1% sodium deoxycholate, 0.1% SDS, and protease inhibitor cocktail for mammalian cells (Sigma-Aldrich, 1:100 v/v) was added to each well of the 6-well plates, and cells were lysed on ice for 10 min. The gathered lysate was flown through 21G syringe for the complete breakdown. The complete lysis of the cells was monitored using Carl Zeiss Primo Vert inverted microscope. 10 μL of each cell lysate was treated with sodium dodecyl sulfate (final concentration 1%), followed by the incubation with the click chemistry reagents (CuSO4 (final conc. 1 mM), TBTA (final conc. 100 μM), sodium ascorbate (final conc. 1 mM) and Azide-Fluor-585 (final conc. 100 μM) for 30 min. Proteins were resolved by 10% SDS-PAGE, and subjected to in-gel scanning fluorescence imaging to visualize the covalent adducts. Total proteins in the gel were then visualized by staining the gel with Instant Blue™.
# [1] = molecular target: T1, Human recombinant ATG7 protein (Homo sapiens, UniProt O95352); assay: Labeling of ATG7 with probes in vitro (click chemistry, in-gel fluorescence); format: binding; details: 3 hours; for labeling efficiency of ATG7 (intensity of the fluorescent bands): catalytically active ATG7 (0.5 μM), increasing probe concentrations, click chemistry, in-gel fluorescence
# T1 construct: purchased R&D Systems
# T1 sequence (O95352 1-703): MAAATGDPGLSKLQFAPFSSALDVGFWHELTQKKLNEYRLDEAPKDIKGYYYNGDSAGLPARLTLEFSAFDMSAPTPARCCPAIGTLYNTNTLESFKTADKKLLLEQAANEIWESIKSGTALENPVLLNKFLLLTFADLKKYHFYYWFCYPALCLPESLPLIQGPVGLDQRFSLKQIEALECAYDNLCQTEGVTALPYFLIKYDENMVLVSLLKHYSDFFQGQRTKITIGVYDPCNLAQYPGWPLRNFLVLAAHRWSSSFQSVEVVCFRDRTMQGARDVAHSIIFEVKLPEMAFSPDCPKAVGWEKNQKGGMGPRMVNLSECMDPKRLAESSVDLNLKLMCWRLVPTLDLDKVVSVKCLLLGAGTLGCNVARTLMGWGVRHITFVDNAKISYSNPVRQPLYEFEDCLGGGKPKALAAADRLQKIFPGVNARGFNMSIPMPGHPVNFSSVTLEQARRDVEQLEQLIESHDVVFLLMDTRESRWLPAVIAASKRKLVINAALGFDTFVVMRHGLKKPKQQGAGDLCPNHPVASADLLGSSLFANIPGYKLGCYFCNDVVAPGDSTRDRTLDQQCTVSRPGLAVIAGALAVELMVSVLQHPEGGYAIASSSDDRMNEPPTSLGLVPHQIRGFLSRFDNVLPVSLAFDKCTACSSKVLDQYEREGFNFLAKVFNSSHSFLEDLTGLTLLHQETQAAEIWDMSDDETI
# Experimental: Following the synthesis, we incubated probes 1, 2, and 3 with catalytically active ATG7 (0.5 μM) for 3 hours. Then the click chemistry was followed to measure the levels of small molecule labeled ATG7. The intensity of the fluorescent bands was interpreted as the labeling efficiency of the probes.
# (§1) Subsequently, increasing concentrations of compounds 4 and 5 were incubated with catalytically active ATG7 (0.5 μM) for 3 hours. […] We also conducted an ATP-competition reaction to test if compounds 4 and 5 utilize the ATP binding site for the covalent labeling. ATG7 was incubated with compound 4 or 5 in the presence or absence of ATP (100 μM) (FIG. 5B).
# (§2) General Information. Human recombinant ATG7 protein was purchased from R&D Systems and used without further purification. In-gel fluorescence imaging was performed on a Typhoon 9600 (GE Healthcare).
# (§3) Labeling of ATG7 with probes 1, 2, 3, 4, and 5 in vitro. ATG7 (0.4 μM) and TCEP (100 μM) in buffer containing HEPES (25 mM, pH 7.6), NaCl (50 mM), and MgCl2 (4 mM) were treated with increasing concentrations of each probe at room temperature (10 μL total volume) for 2 h. The reaction mixtures were treated with 1 μl of 10% SDS followed by 4 μL of click reaction mixture: CuSO4 (final conc. 1 mM), TBTA (final conc. 100 μM), sodium ascorbate (final conc. 1 mM), and Azide-Fluor-585 (final conc. 100 μM). The reaction mixture was incubated for 30 min at r.t., followed by the addition of 3 μL of 6× Laemmli loading buffer, and resolved by 12% SDS-PAGE. The bottom of the gel was cut to eliminate the excessive amount of Azide-Fluor-585. The acrylamide gel was kept in 50% ddH2O, 40% EtOH and 10% Acetic acid solution until it was subjected to the in-gel scanning fluorescence imaging (Typhoon 9600, GE Healthcare). The proteins in the gel were then visualized with Instant Blue™.
# [2] = molecular target: T1, Human recombinant ATG7 protein; assay: ATP-competition reaction for covalent labeling of ATG7; format: binding; details: ATP (100 μM) present or absent
# Experimental: as §1, §2
# as §3, with “The bottom of the gel was cut to eliminate the excessive amount of Azide-Fluor-585.” left out, “The proteins in the gel were then visualized with Instant Blue™.” left out
"labeling of ATG7 at 10 μM concentration ([1]; probe 10 μM, ATG7 (0.5 μM))",Structure (SMILES),cell permeability and labeling of proteins in live cells (A549 cells),labeling efficiency of ATG7 (intensity of the fluorescent bands) [1],labeling of ATG7 in the presence of ATP compared to ATP free conditions [2],off-targets (non-specifically labeled proteins) in live cells (A549 cells)
little labeling,C#CCCCCNS(=O)(=O)C=C [Compound 1],cell permeable and able to label proteins in live cells,inefficient labeling,,
,C#CCNc1ncnc2c1ncn2[C@@H]1O[C@H](CNS(=O)(=O)C=C)[C@@H](O)[C@H]1O [Compound 2],cell permeable and able to label proteins in live cells,,,
,C#Cc1cccc(Nc2ncnc3c2ncn3[C@@H]2O[C@H](CNS(=O)(=O)C=C)[C@@H](O)[C@H]2O)c1 [Compound 3],cell permeable and able to label proteins in live cells,higher labeling efficiency than 2; also recorded: much higher labeling efficiency than propargyl alkyne containing probes; also recorded: most potently labels ATG7,,
,C#CCNc1ncnc2c1ncn2[C@@H]1O[C@H](COS(=O)(=O)C=C)[C@@H](O)[C@H]1O [Compound 4],,,significantly dropped; also recorded: utilize ATP binding site for the ATG7 labeling,
,C#Cc1cccc(Nc2ncnc3c2ncn3[C@@H]2O[C@H](COS(=O)(=O)C=C)[C@@H](O)[C@H]2O)c1 [Compound 5],cell permeable and able to label proteins in live cells,stronger intensity of the fluorescent bands than compound 4-treated ATG7; also recorded: much higher labeling efficiency than propargyl alkyne containing probes; also recorded: greater labeling potency than compound 4,significantly dropped; also recorded: utilize ATP binding site for the ATG7 labeling,more numbers of off-targets when compared with compound 3; also recorded: strongest off target effects
